Reference: US10227361B2, “Fused imidazobenzothiazole compounds” (TORRENT PHARMACEUTICALS LIMITED, priority 2014, dated 2019)

Experiments:
[1] = test system: tobacco smoke induced airway inflammation in mice; test: Acute mouse model of tobacco smoke induced airway inflammation (BALF neutrophils); format: in vivo; details: BAL fluid, exposure 25 minutes; for Neutrophil (*10^3 cells/animal): Mean ± SEM
Source text: The tobacco smoke induced airway inflammation model is used for in vivo efficacy of compound. Many investigators have used acute tobacco smoke (TS) exposure in rodents as models of airway inflammation for quick screening of anti-inflammatory therapies for COPD (J Pharmacol Exp Ther. 2008; 324(3):921-9; J Pharmacol Exp Ther. 2010; 332(3):764-75; Journal of Inflammation 2013, 10(Suppl 1):31 and Eur Respir J Suppl 2006; 663s:3850). Given its position as predominant cause of COPD, animal models using TS exposure would appear to be the logical choice for investigation (Respir Res. 2004; 2; 5:18).
A: Efficacy Studies in Acute Mouse Model of Airway Inflammation
Mice were exposed to tobacco smoke (TS) in an acrylic chamber. Animals were exposed to TS from 8, 12, 16 cigarettes on day1, day2, day 3 respectively. From day 4 onwards till day 11, animals were exposed to TS from 20 cigarettes per day. On 11 days of exposure of mice to TS, significant inflammatory cell recruitment, predominantly neutrophils, to lungs was observed as compared to air exposed control mice (BALF neutrophil levels, nil in air control group vs 93.8±11.7*10^3 cells/animal in smoke exposed vehicle group).
Lung delivery of test compound was achieved by whole body aerosol exposure for 25 minutes in a chamber. Mice were divided in different dose groups and exposed in a chamber for 25 minutes with vehicle or Compound No. 22 (0.3 mg/ml) or Compound No. 22 (3 mg/ml)) or Compound No. 31 (0.3 mg/ml) or Compound No. 31 (1.0 mg/ml). A total quantity of 3.5 ml of either vehicle or test compound formulation (suspension formulation with D90<5μ, with Malvern Mastersizer®) was nebulized in a chamber to respective groups over 25 mins period. Test compounds were administered 2 hr prior to TS exposure from day 6 to day 11. Bronchoalveolar lavage (BAL) was performed 24 hr post last TS exposure.
Trachea of animal was cannulated using catheter. Phosphate Buffer Saline (PBS) was used as lavage fluid. A volume of 0.5 ml was gently instilled and withdrawn and collected in microcentrifuge tube placed on ice. This procedure was repeated further 2 times.
(§1) Lavage fluid was separated from cells by centrifugation and supernatant separated. The cell pallet was resuspended in known volume of PBS. Cells in aliquot were stained using Turk solution and total cell numbers were calculated by counting Turk stained aliquot under microscope using haemocytometer.
(§2) The residual cell suspension was resuspended and slides prepared using cyto centrifuge technique (Cytospin 4, Thermo Shandon). The slides were then fixed with methanol, air dried and stained with May Grunwald Giemsa stain. Up to 300 cells were counted and differentiated using standard morphometric techniques under light microscopy.
All results are presented at individual data for each animal and mean value calculated for each group. Percentage inhibition for the neutrophil was calculated for Compound No. 22 & 31 treatment group against vehicle group.

[2] = target: T1, purified recombinant human p38 alpha MAPK (Homo sapiens, UniProt Q16539); test: Inhibition of p38 alpha MAPK activity: TR-FRET kinase assay; format: biochemical; details: read-out: P38α Inhibition
T1 construct: purchased Millipore, USA
Protocol: Inhibition of p38 Alpha MAPK Activity: Time-Resolved Fluorescence Resonance Energy Transfer Kinase Standard Assay (TR-FRET Assay)
Compounds of present invention at various concentrations were premixed with DMSO. The experiment was initiated by mixing 0.5% 1.0% DMSO as vehicle/compounds with purified recombinant human p38 alpha MAPK (Millipore, USA) in the wells and 15 min incubation at RT. Thereafter, 30 nM of Biotinylated GST-ATF2 (Activation Transcription Factor2) and 100 μM of ATP were added in to the wells containing reaction mixture, followed by reincubation for 60 minutes at RT. Reaction was terminated by addition of 10 mM of EDTA and detection reagent containing anti-phosphothreonine ATF2 antibody (Perkin Elmer, USA) labelled with europium chelate and APC (Allophycocyanin) labeled streptavidin, into the reaction mixture which was further incubated for 60 minutes at room temperature. The degree of phosphorylation of the substrate (GST-ATF2) was measured using Envision multimode reader (Perkin Elmer). Percentage inhibition of p38 kinase activity was calculated by determining ratio of specific europium 665 nm energy transfer signal to reference 615 nm signal.

[3] = treated up to 12-24 weeks; cited from earlier work
[4] = rheumatoid arthritis patients; single low dose tested; compared to placebo; cited from earlier work
[5] = dogs, 6-month safety study; cited from earlier work
[6] = rheumatoid arthritis; possibly; cited from earlier work
[7] = test system: tobacco smoke (TS) and LPS induced chronic COPD model in guinea pigs; test: Chronic model of COPD in guinea pigs (TS and LPS, 18 weeks); format: in vivo
Protocol: (II) Efficacy Studies in Chronic Model of COPD in Guinea Pigs
Guinea pigs were exposed to tobacco smoke (TS) and LPS in an acrylic chamber. Exposure to TS and LPS is given in the manner as illustrated in FIG. 3 in a week for a total of 18 weeks.
Lung delivery of test material was achieved by whole body aerosol exposure for 75 minutes in a chamber. Guinea pig were divided in different dose groups and exposed to vehicle or Compound No. 31 (2 mg/ml). A total quantity of 7.0 ml of either vehicle or Compound No. 31 (suspension formulation with D90<5μ, with Malvern Mastersizer®) was nebulized in chambers to respective groups over 75 mins period. Compound No 31 was administered 2 hr prior to TS/LPS exposure once daily from week 9 to week 18. Control animals were exposed to room air instead of TS and PBS instead of LPS. Lung function and bronchoalveolar lavage (BAL) for each animal was performed 24 hr post last TS exposure.
Lung function assessment in anesthetized and tracheotomized animal was carried out using PFT maneuvers (BUXCO, USA) for determination of various parameters such as Functional Residual Capacity (FRC), Residual volume (RV), Pressure volume and flow volume relationships.
Trachea of animal was cannulated using catheter. Phosphate Buffer Saline (PBS) was used as lavage fluid. A volume of 5.0 ml was gently instilled and withdrawn and collected in microcentrifuge tube placed on ice. This procedure was repeated further 5 times.
as §1, §2
After collection of BALF lung was fixed under constant pressure using neutral buffered formaline, which is to be used further for histopathological analysis. Hematoxylin and eosin stained slides were used for assessment of lung inflammatory cell influx and alveolar & epithelial inflammatory changes. Periodic acid-Schiff-diastase stained slides were used to evaluate mucin secreting cells and Masson's trichome stained slides were used for assessment of collagen fibers in parenchyma.
All results are presented at individual data for each animal and mean value calculated for each group. Percentage inhibition for the neutrophil was calculated for compound no 31 group against vehicle group.

[8] = test system: tobacco smoke induced airway inflammation in guinea pig; test: Acute guinea pig model of tobacco smoke induced airway inflammation (BALF neutrophils); format: in vivo, Guinea pigs; details: BAL fluid, 6 mg/ml aerosol, exposure 75 minutes
Source text: B. (I) Efficacy Studies in Acute Guinea Pig Model of Airway Inflammation
Guinea pigs were exposed to tobacco smoke (TS) in an acrylic chamber. Animals were exposed to TS from 5, 10, 15 cigarettes on day 1, day 2, day 3 respectively. From day 4 onwards till day 11, animals were exposed to TS from 15 cigarettes per day. On 11 days of exposure of guinea pig to TS, significant inflammatory cell recruitment, predominantly neutrophils, to lungs was observed as compared to air exposed control guinea pig (BALF neutrophil levels, 0.23±0.052*10^6 cells/animal in air control group vs 3.5±0.62*10^6 cells/animal in smoke exposed vehicle group).
Lung delivery of test compound was achieved by whole body aerosol exposure for 75 minutes in a chamber. […] A total quantity of 7.0 ml of either vehicle or test compound formulation (suspension formulation with D90<5μ, with Malvern Mastersizer®) was nebulized in chambers to respective groups over 75 mins period. […]
Lavage fluid was separated from cells by centrifugation and supernatant separated. […] Cells in aliquot were stained using Turk solution and total cell numbers were calculated by counting Turk stained aliquot under microscope using haemocytometer. […]
All results are presented at individual data for each animal and mean value calculated for each group. Percentage inhibition for the neutrophil was calculated for Compound No 31 treatment group against vehicle group.

T1 sequence (Q16539 whole entry): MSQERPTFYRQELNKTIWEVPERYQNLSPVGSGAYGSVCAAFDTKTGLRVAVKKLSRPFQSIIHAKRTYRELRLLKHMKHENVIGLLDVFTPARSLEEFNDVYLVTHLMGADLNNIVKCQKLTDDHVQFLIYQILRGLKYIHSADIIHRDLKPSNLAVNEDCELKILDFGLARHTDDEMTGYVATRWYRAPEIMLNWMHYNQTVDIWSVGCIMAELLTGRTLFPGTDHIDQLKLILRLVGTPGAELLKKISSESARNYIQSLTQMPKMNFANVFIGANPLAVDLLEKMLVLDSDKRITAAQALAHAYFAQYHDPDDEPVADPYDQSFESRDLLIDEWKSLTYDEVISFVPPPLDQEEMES

## CC(C)(C)c1cc(NC(=O)NCc2ccccc2Oc2ccc3c(c2)sc2ncc(CO)n23)n(-c2ccc(O)c(Cl)c2)n1 [Compound 22, 1-[3-tert-butyl-1-(3-chloro-4-hydroxyphenyl)-1H-pyrazol-5-yl]-3-(2-{[3-(hydroxymethyl)imidazo[2,1-b][1,3]benzothiazol-7-yl]oxy}benzyl)urea]
[1]; 0.3 mg/ml aerosol
  % Inhibition (neutrophil, against vehicle group): 24%
  Neutrophil (*10^3 cells/animal): 71.2 ± 13.6 *10^3 cells/animal
[1]; 3 mg/ml aerosol
  % Inhibition (neutrophil, against vehicle group): 62%
  Neutrophil (*10^3 cells/animal): 35.2 ± 3.7 *10^3 cells/animal
[2]; Concentration 1 μM
  inhibition at 1 µM: 80 to 100%

## Cc1c(F)cc(C(=O)NC2CC2)cc1-c1ccc(C(=O)NCC(C)(C)C)cn1 [Losmapimod]
[3]
  tolerability in clinical studies: well tolerated

## O=c1ncn2nc(Sc3ccc(F)cc3F)ccc2c1-c1c(Cl)cccc1Cl [Vx-745]
[4]
  clinical benefit: significant clinical benefit compared to placebo
[5]
  toxicity in safety study: undisclosed CNS toxicity

## CNC(=O)c1ccc(C)c(-n2c(C)cc(OCc3ccc(F)cc3F)c(Br)c2=O)c1 [PH-797804]
[3]
  tolerability in clinical studies: well tolerated

## Cc1ccc(-n2nc(C(C)(C)C)cc2NC(=O)Nc2ccc(OCCN3CCOCC3)c3ccccc23)cc1 [BIRB-796]
[6]
  reason for withdrawal from Phase II clinical trials: liver enzyme elevations

## COCc1cnc2sc3cc(Oc4ccccc4CNC(=O)Nc4cc(C(C)(C)C)nn4-c4ccc(O)c(Cl)c4)ccc3n12 [Compound 31, 1-[3-tert-butyl-1-(3-chloro-4-hydroxyphenyl)-1H-pyrazol-5-yl]-3-(2-{[3-(methoxymethyl)imidazo[2,1-b][1,3]benzothiazol-7-yl]oxy}benzyl)urea]
[1]; 0.3 mg/ml aerosol
  % Inhibition (neutrophil, against vehicle group): 60%
  Neutrophil (*10^3 cells/animal): 40.3 ± 6.2 *10^3 cells/animal
[1]; 1.0 mg/ml aerosol
  % Inhibition (neutrophil, against vehicle group): 80%
  Neutrophil (*10^3 cells/animal): 20.4 ± 3.8 *10^3 cells/animal
[2]; Concentration 100 nM
  inhibition at 0.1 µM: 80 to 100%
[7]; guinea pig chronic COPD model, BALF, 2 mg/ml aerosol, 75 minutes
  % inhib^n (neutrophil, against vehicle group): 52%
[7]; guinea pig chronic COPD model, BALF, 2 mg/ml aerosol, 75 minutes, once daily week 9 to 18, Mean ± SEM
  Neutrophil (*10^6cells): 3.3 ± 0.71 *10^6cells
[7]; lung remodeling, histopathological analysis of lung tissue, 2 mg/ml
  Composite score (Range): 0.4 (0.1 to 0.5)
[7]; mucus secretion, 2 mg/ml
  Average number of mucin secreting cells/10 high power field (Range): 301 (190-420) cells/10 high power field
[8]
  % Inhibition (neutrophil, against vehicle group): 48%
[8]; Mean ± SEM
  Neutrophil (*10^6 cells/animal): 1.8 ± 0.28 *10^6 cells/animal
